Measured values: patent US7745399B2, “Hsp70 peptide stimulating natural killer (NK) cell activity and uses thereof” (multimmune GmbH, priority 2000, dated 2010)
Read-outs that look alike come from different tables or passages of the source.

How the values were obtained:
NK cells [1] = experiment: NK cell stimulation (3H thymidine uptake assays and 51Cr release assays); assay type: cell-based, human
Protocol: (§1) The proliferative capacity of NK and T cells against different Hsp70 peptides and Hsp70 protein (loc. sit) was determined in a standard ^3H thymidine uptake assay (22). Viable cells (5×10^4 cells/100 μl) were seeded in 96-well flat-bottom microtiter plates (Greiner Nuertingen, Germany) in supplemented RPMI-1640 medium containing 100 IU IL-2 and Hsp70 protein (10 μg/ml) or different amounts of Hsp70 peptides ranging from 0.02 up to 10 μg/ml. As an internal control the proliferation against IL-2 alone was measured in parallel. After a 24 or 48 hour incubation period the cells were pulsed with ^3H thymidine (1 μCi/well) and the total uptake was measured following an 18 hour incubation period at 37° C. in a liquid scintillation counter (Beckmann instruments, Munich, Germany).
The cytolytic activity of NK cells was monitored in a standard ^51Cr assay (23). Dilutions of the effector cells were incubated with ^51Cr-labeled (100 μCi of Na^51CrO4, NEN-Dupont, Boston, Mass.) tumor target cells (3×10^3 cells per well) in duplicates at a final volume of 200 μl RPMI-1640 medium supplemented with 10% FCS at 37° C. for 4 h in 96-well U-bottom plates (Greiner, Nuertingen, Germany). After the incubation period supernatants were collected and the radioactivity was counted in a γ-counter (Packard Instruments). The percentage of specific lysis was determined according to the equation: (experimental release−spontaneous release)/(maximum release−spontaneous release)×100. The percentage spontaneous release was always<15% for each target cell line.

NK cells [2] = conditions: Table II, complete proteins; cited from earlier work
T cells = experiment: 3H thymidine uptake assay, proliferative response of T cells; assay type: cell-based, human; conditions: peptides plus low dose IL-2 (100 IU/ml), any tested concentration
Protocol: (§2) Briefly, monocyte depleted peripheral blood lymphocytes (PBL) were isolated from buffy coats of healthy human volunteers (Multhoff et al., 1995a). NK cells were purified by adherence selection following a modified protocol of Vujanovic (1993). T cells remain in the supernatant cell population.
as §1

CX− tumor cells = experiment: 51Cr release assay (CML), cytolytic activity of stimulated NK cells against CX-; assay type: cell-based, human; conditions: NK cells stimulated 4 days with IL-2 100 IU/ml plus peptide 2 μg/ml
Protocol: (§3) Cytolytic activity of NK cells stimulated with IL-2 alone or with IL-2 plus the 14-mer peptide TKD or with IL-2 plus the 8-mer peptide NLL. Cytolytic activity of NK cells either stimulated with low dose IL-2 (100 IU/ml) alone or with IL-2 plus the 14-mer peptide TKD (2 μg/ml) or with IL-2 plus the 8-mer peptide NLL (2 μg/ml) for 4 days. As target cells ^51Cr labeled CX+ (FIG. 2a) and CX− (FIG. 2b) tumor cells, that differ with respect to their capability to express Hsp70 on the plasma membrane, were used. The results are expressed as the percentage of specific lysis at varying E:T ratios ranging from 2:1 up to 40:1. […]
(§4) The colon carcinoma sublines CX+ (>90% Hsp70 positive cells) and CX− (<20% Hsp70 positive cells) described in patent application EP-A2-084 300 5 and originally derived from CX2 colon carcinoma cells (Tumorzentrum Heidelberg, TZB 610005, Germany) that differ with respect to their capacity to express Hsp70 on their plasma membrane were cultured at 37° C., 5% CO2 in RPMI-1640 medium (Gibco, Eggenstein, Germany) supplemented with heat-inactivated 10% FCS (Gibco) and 2 mM L-glutamine and antibiotics (penicillin/streptomycin). […] All cell lines were free from mycoplasma contamination as determined by repeated testing using the 6-methylpurin desoxyribosid assay (Boehringer Mannheim, Germany).
(§5) The cytolytic activity of NK cells was monitored in a standard ^51Cr assay (23). […]

NK cells [3] = experiment: 3H thymidine uptake assay, proliferative response of NK cells; assay type: cell-based, human; conditions: IL-2 100 IU/ml plus peptide 0.02 up to 8 μg/ml
Protocol: Comparison of the proliferative response of NK cells against Hsp70 peptides. NK cells were stimulated either with IL-2 (100 IU/ml) alone or with IL-2 plus peptides NLL (8-mer, FIG. 1a), TKD (14-mer, FIG. 1b) and GIPP (13 mer, FIG. 1c) at concentrations 0.02, 0.2, 2, 4 and 8 μg/ml. As a positive control NK cells were stimulated with rHsp70 protein at a concentration of 10 μg/ml. The proliferative response of NK cells was measured 72 h after peptide incubation and an 18 h incubation period with ^3H thymidine (1 μCi/ml). In FIG. 1e stimulation with TKD in a more refined scale between 0.1 and 3 μg is shown. […] Values are given as the means of four independent experiments+/−SD.
as §2, §1

NK cells [4] = experiment: FACScan phenotypic characterization of stimulated NK cells; assay type: cell-based, human; conditions: NK cells stimulated with IL-2 plus peptide 2 μg/ml
Protocol: Cytolytic activity of NK cells stimulated with IL-2 alone or with IL-2 plus the 14-mer peptide TKD or with IL-2 plus the 8-mer peptide NLL. Cytolytic activity of NK cells either stimulated with low dose IL-2 (100 IU/ml) alone or with IL-2 plus the 14-mer peptide TKD (2 μg/ml) or with IL-2 plus the 8-mer peptide NLL (2 μg/ml) for 4 days. As target cells ^51Cr labeled CX+ (FIG. 2a) and CX− (FIG. 2b) tumor cells, that differ with respect to their capability to express Hsp70 on the plasma membrane, were used. The results are expressed as the percentage of specific lysis at varying E:T ratios ranging from 2:1 up to 40:1. The percentage spontaneous release for each tumor target cell line was less than 20%.
Directly fluorescein-conjugated mAb (CD3FITC/CD16/CD56^PE, Becton Dickinson, Heidelberg, Germany) were added to cell suspensions (0.1×10^6 cells), incubated for 20 min on ice, washed and analysed on a FACScan instrument (Becton Dickinson, Heidelberg, Germany). The percentage of positively stained cells was defined as the number of specifically stained, viable (propidium-iodide negative) cells minus the number of cells stained with an isotype matched control antibody on a FACScan instrument (Becton Dickinson, Heidelberg, Germany).

CX+ tumor cells = experiment: 51Cr release assay (CML), cytolytic activity of stimulated NK cells against CX+; assay type: cell-based, human; conditions: NK cells stimulated 4 days with IL-2 100 IU/ml plus peptide 2 μg/ml, compared to IL-2 alone or IL-2 plus NLL
Protocol: as §3, §4, §5

NK cells [5] = conditions: cited from earlier work
[6] = Table III, peptides only, 3H thymidine uptake and 51Cr release assays

A A D N K S L G Q F N L D G (AADNKSLGQFNLDG) [DNAK, peptide, Dnak aa 447-460]
NK cell stimulation (NK cells [1]; [6]): no

Dank (complete protein): DnaK complete protein
NK cell stimulation (NK cells [2]): no

EGERAMTKDNNLLGRFELSG (EGERAMTKDNNLLGRFELSG) [Hsp70 (peptide) 441-463, 20 mer peptide of Hsp70]
NK cell stimulation (NK cells [1]; Table II, peptides): yes

G E R A M T K D N N L L G R F E L S G (GERAMTKDNNLLGRFELSG) [Hsp70 445-463, peptide, Hsp70 aa 445-463]
NK cell stimulation (NK cells [1]; [6]): yes

Hsc70 (complete protein): Hsc70 complete protein
NK cell stimulation (NK cells [2]): no

Hsp70hom (complete protein): testis specific member of the Hsp70 family, complete protein
NK cell stimulation (NK cells [2]): yes

NLLGRFEL
NK cell stimulation (NK cells [1]; Table II, peptides): no
NK cell stimulation (NK cells [1]; [6]): no
T cell growth (T cells): none of the three peptides NLL, GIPP or TKD stimulates T cell growth
lysis of CX− tumor cells (CX− tumor cells): no significant differences
proliferative capacity of NK cells (NK cells [3]): did not stimulate
CD3 positive cells (NK cells [4]): 8%
CD16/56 positive cells (NK cells [4]): 80%

NLLGRFELSGIPP [13-mer C-terminal extended peptide, Hsp70 aa 454-466]
NK cell stimulation (NK cells [1]; Table II, peptides): no
NK cell stimulation (NK cells [1]; [6]): no
T cell growth (T cells): none of the three peptides NLL, GIPP or TKD stimulates T cell growth
proliferative capacity of NK cells (NK cells [3]): did not stimulate

T K D N N L L G K F E L T G (TKDNNLLGKFELTG) [Hsc70, peptide, Hsc70 aa 450-463]
NK cell stimulation (NK cells [1]; [6]): no

T K D N N L L G R F E L (TKDNNLLGRFEL) [TKD12, peptide, Hsp70 aa 450-461]
NK cell stimulation (NK cells [1]; [6]): no

T K D N N L L G R F E L S G (TKDNNLLGRFELSG) [14-mer peptide, Hsp70 aa 450-463]
NK cell stimulation (NK cells [1]; Table II, peptides): yes
NK cell stimulation (NK cells [1]; [6]): yes
T cell growth (T cells): none of the three peptides NLL, GIPP or TKD stimulates T cell growth
lytic activity against Hsp70 expressing CX+ tumor cells (CX+ tumor cells): significantly enhanced lytic activity
lysis of CX− tumor cells (CX− tumor cells): no significant differences
proliferative capacity of NK cells (NK cells [3]): comparable immunostimulatory capacity like full length Hsp70 protein
CD3 positive cells (NK cells [4]): 6%
CD16/56 positive cells (NK cells [4]): 79%

T K D N N L L G R F E L T G (TKDNNLLGRFELTG) [HOM, peptide, Hsp70hom aa 450-463]
NK cell stimulation (NK cells [1]; [6]): low

rHsp70: Human recombinant Hsp70 protein from StressGen (SPP-755)
optimal stimulatory dose (NK cells [5]; defined previously): 10 µg/mL
proliferative response of human NK cells (NK cells [5]; low dose IL-2 (100 IU/ml) plus protein, compared to IL-2 only): increase the proliferative response
